In experiment [1] the target is T1, Enoyl-[acyl-carrier-protein] reductase [NADPH] FabI (Staphylococcus aureus (strain NCTC 8325 / PS 47), UniProt Q2FZQ3).
T1 sequence (Q2FZQ3 whole entry): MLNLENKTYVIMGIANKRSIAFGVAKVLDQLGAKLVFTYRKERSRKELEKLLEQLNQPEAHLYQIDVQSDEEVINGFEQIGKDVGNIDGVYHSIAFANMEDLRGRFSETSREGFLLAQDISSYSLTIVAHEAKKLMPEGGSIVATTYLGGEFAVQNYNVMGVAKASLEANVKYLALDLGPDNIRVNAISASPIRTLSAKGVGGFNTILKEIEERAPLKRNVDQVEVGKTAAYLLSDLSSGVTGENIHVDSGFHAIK
The experiment can be described thus: Inhibition Kinetics Assay. The conditions noted are these: pH 7.5. How it is done: (§1) Kinetics were performed on a Cary 100 spectrophotometer (Varian) at 20 °C.

Experiment [2] addresses T2, Enoyl-[acyl-carrier-protein] reductase [NADH] FabI (Escherichia coli (strain K12), UniProt P0AEK4).
T2 sequence (P0AEK4 whole entry): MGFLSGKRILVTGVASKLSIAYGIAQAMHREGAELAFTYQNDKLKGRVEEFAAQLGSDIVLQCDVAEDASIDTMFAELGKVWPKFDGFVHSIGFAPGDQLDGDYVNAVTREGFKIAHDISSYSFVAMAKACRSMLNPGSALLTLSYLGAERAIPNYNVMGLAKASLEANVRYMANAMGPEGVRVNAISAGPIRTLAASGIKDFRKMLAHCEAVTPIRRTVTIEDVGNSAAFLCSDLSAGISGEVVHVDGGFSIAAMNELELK
Kind of experiment: Inhibition Kinetics Assay. The settings on record: pH 7.5. The protocol:
as §1

Usually Ki stands for a measure of affinity in units of concentration, obtained from inhibition or displacement. Read a high Ki as lower affinity.

Turning to `CCCCCCc1ccn(Cc2ccccc2)c(=O)c1` [PT179], in experiment [1], the affinity corresponds to a Ki of 19 nM. Compound `CCCCCCc1ccn(Cc2ccccc2Cl)c(=O)c1` [PT172] registered a Ki in experiment [1] of 11 nM. Consider `Cc1ccn(Cc2ccccc2Cl)c(=O)c1` [PT170], for which the inhibition constant (Ki) in experiment [1] stood at 229 nM. As for `CCCCCCc1cc(=O)c(Oc2ccccc2C)cn1C` [PT166], the inhibition constant Ki in experiment [2] stood at 7 nM; in experiment [1] it was 2.7 nM. Turning to `Cc1c(N)cccc1Cn1ccc(OCCc2cccs2)cc1=O` [CG400549], the inhibition constant (Ki) in experiment [1] was found to be 1.3 nM. Same read-out and setting: the same measure for `CCCCCCc1cc(=O)c(Cc2ccccc2C#N)cn1C` [PT159]: 11 nM. As for `CCCCCCc1ccn(Cc2ccccc2C)c(=O)c1` [PT171], the inhibitory constant (Ki) in experiment [2] is 95.7 nM; in experiment [1], 11.9 nM.

The compound `CCCCCCc1ccc(Oc2ccccc2)c(=O)[nH]1` [PT191] came in with an inhibition constant Ki in experiment [1] of 196 nM. In turn, `CCCCCc1ccn(Cc2ccccc2C#N)c(=O)c1` [PT420] came in with a Ki in experiment [1] of 29.6 nM. Regarding `CCCCCCc1ccn(Cc2cccc(N)c2C)c(=O)c1` [PT173], the inhibition constant Ki in experiment [2] amounted to 203 nM; in experiment [1] it was 2 nM.
